According to ChEMBL document CHEMBL3870328, “Synthesis of novel Ral inhibitors: An in vitro and in vivo study” (Bioorg Med Chem Lett, 2016):
Activity calls are given as the source filed them. The rule behind the calls is not given here.

Key:
[1] = (§1) Cytotoxicity against human NCI-H2122 cells under anchorage-independent condition assessed as cell growth inhibition after 10 days by nitro blue tetrazolium-based microscopic analysis; format: functional; settings: NCI-H2122, 240 h
[2] = Drug uptake in liver of mouse xenografted with human NCI-H2122 cells at 50 mg/kg, ip after 3 hrs by LC-MS/MS analysis; format: ADME, organism-based; settings: read-out: Drug uptake
[3] = Drug uptake in lungs of mouse xenografted with human NCI-H2122 cells at 50 mg/kg, ip after 3 hrs by LC-MS/MS analysis; format: ADME, organism-based; settings: lung, read-out: Drug uptake
[4] = target: T1, Ras-related protein Ral-B (Homo sapiens) (UniProt P11234); assay: Inhibition of RalB activity in human H2122 spheroids after 4 hrs by RalBP1 pull down assay
T1 sequence (whole entry): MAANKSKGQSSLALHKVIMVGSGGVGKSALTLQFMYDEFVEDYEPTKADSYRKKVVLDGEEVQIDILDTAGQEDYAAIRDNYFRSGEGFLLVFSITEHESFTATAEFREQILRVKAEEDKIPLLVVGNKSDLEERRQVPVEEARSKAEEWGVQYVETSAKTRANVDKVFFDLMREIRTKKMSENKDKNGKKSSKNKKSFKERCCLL

[5] = Drug uptake in heart of mouse xenografted with human NCI-H2122 cells at 50 mg/kg, ip after 3 hrs by LC-MS/MS analysis; format: ADME, organism-based; settings: read-out: Drug uptake
[6] = Drug uptake in tumor of mouse xenografted with human NCI-H2122 cells at 50 mg/kg, ip after 3 hrs by LC-MS/MS analysis; format: ADME, organism-based, Neoplasm; settings: read-out: Drug uptake
[7] = Drug uptake in kidney of mouse xenografted with human NCI-H2122 cells at 50 mg/kg, ip after 3 hrs by LC-MS/MS analysis; format: ADME, organism-based; settings: read-out: Drug uptake
[8] = Drug uptake in brain of mouse xenografted with human NCI-H2122 cells at 50 mg/kg, ip after 3 hrs by LC-MS/MS analysis; format: ADME, organism-based; settings: read-out: Drug uptake
[9] = Plasma concentration in mouse xenografted with human NCI-H2122 cells at 50 mg/kg, ip after 3 hrs by LC-MS/MS analysis; format: ADME, organism-based
[10] = target: T2, Ras-related protein Ral-A (Homo sapiens) (UniProt P11233); assay: Inhibition of RalA activity in human H2122 spheroids after 4 hrs by RalBP1 pull down assay
T2 sequence (whole entry): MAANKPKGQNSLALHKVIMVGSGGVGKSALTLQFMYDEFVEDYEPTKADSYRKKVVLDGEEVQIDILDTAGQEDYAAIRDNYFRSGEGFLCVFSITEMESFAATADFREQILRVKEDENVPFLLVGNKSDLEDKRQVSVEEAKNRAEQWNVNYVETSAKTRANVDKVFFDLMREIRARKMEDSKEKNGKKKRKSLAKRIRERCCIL

[11] = Half life in ip dosed mouse plasma; format: ADME, organism-based
NCI-H2122 = assay: as §1; format: functional
[12] = Drug metabolism in mouse xenografted with human NCI-H2122 cells assessed as M6 metabolite formation in plasma at 50 mg/kg, ip after 3 hrs by LC-MS/MS analysis; format: ADME, organism-based; settings: in vivo
[13] = Drug metabolism in mouse xenografted with human NCI-H2122 cells assessed as M6 metabolite formation in heart at 50 mg/kg, ip after 3 hrs by LC-MS/MS analysis; format: ADME, organism-based; settings: in vivo
[14] = Drug metabolism in mouse xenografted with human NCI-H2122 cells assessed as M7 metabolite formation in liver at 50 mg/kg, ip after 3 hrs by LC-MS/MS analysis; format: ADME, organism-based; settings: in vivo
[15] = Drug metabolism in mouse xenografted with human NCI-H2122 cells assessed as M7 metabolite formation in brain at 50 mg/kg, ip after 3 hrs by LC-MS/MS analysis; format: ADME, organism-based; settings: in vivo
[16] = Drug metabolism in mouse xenografted with human NCI-H2122 cells assessed as M7 metabolite formation in kidney at 50 mg/kg, ip after 3 hrs by LC-MS/MS analysis; format: ADME, organism-based; settings: in vivo
[17] = Drug metabolism in mouse xenografted with human NCI-H2122 cells assessed as M7 metabolite formation in plasma at 50 mg/kg, ip after 3 hrs by LC-MS/MS analysis; format: ADME, organism-based; settings: in vivo
[18] = Drug metabolism in mouse xenografted with human NCI-H2122 cells assessed as M6 metabolite formation in liver at 50 mg/kg, ip after 3 hrs by LC-MS/MS analysis; format: ADME, organism-based; settings: in vivo
[19] = Drug metabolism in mouse xenografted with human NCI-H2122 cells assessed as M7 metabolite formation in tumor at 50 mg/kg, ip after 3 hrs by LC-MS/MS analysis; format: ADME, organism-based, Neoplasm; settings: in vivo
[20] = Drug metabolism in mouse xenografted with human NCI-H2122 cells assessed as M6 metabolite formation in lungs at 50 mg/kg, ip after 3 hrs by LC-MS/MS analysis; format: ADME, organism-based, Lung; settings: in vivo
[21] = Drug metabolism in mouse xenografted with human NCI-H2122 cells assessed as M6 metabolite formation in kidney at 50 mg/kg, ip after 3 hrs by LC-MS/MS analysis; format: ADME, organism-based; settings: in vivo
[22] = Drug metabolism in CD1 mouse liver microsomes assessed as CYP450-mediated M7 metabolite formation at 16.7 uM up to 60 mins in presence of NADPH by LC-MS/MS analysis; format: ADME; settings: 1 h
[23] = Drug metabolism in mouse xenografted with human NCI-H2122 cells assessed as M7 metabolite formation in lungs at 50 mg/kg, ip after 3 hrs by LC-MS/MS analysis; format: ADME, organism-based, Lung; settings: in vivo
[24] = Drug metabolism in mouse xenografted with human NCI-H2122 cells assessed as M7 metabolite formation in heart at 50 mg/kg, ip after 3 hrs by LC-MS/MS analysis; format: ADME, organism-based; settings: in vivo
[25] = Drug metabolism in CD1 mouse liver microsomes assessed as CYP450-mediated M6 metabolite formation at 16.7 uM up to 60 mins in presence of NADPH by LC-MS/MS analysis; format: ADME; settings: 1 h
[26] = Drug metabolism in mouse xenografted with human NCI-H2122 cells assessed as M6 metabolite formation in tumor at 50 mg/kg, ip after 3 hrs by LC-MS/MS analysis; format: ADME, organism-based, Neoplasm; settings: in vivo

Compound: Cc1nn(C)c2c1C(c1ccc(C(C)C)cc1)C(C#N)=C(N)O2 (centres undefined)
- IC50 [1]: 4 µM

Compound: COc1ccc(-c2nn(C)c3c2C(c2ccc(F)cc2)C(C#N)=C(N)O3)cc1OC (centres undefined)
- IC50 [1]: > 10 µM

Compound: Cc1nn(C)c2c1C(c1ccc3c(c1)OCCO3)C(C#N)=C(N)O2 (centres undefined)
- IC50 [1]: 8.6 µM

Compound: COc1cc(OC)c(C2C(C#N)=C(N)Oc3c2c(C)nn3C)c(OC)c1 (centres undefined)
- IC50 [1]: 1.6 µM

Compound: Cc1nn(C)c2c1C(c1ccc(F)cc1)C(C#N)=C(N)O2 (centres undefined)
- IC50 [1]: > 10 µM

Compound: Cn1nc(-c2ccccc2)c2c1OC(N)=C(C#N)C2c1ccc(C#N)cc1 (centres undefined)
- IC50 [1]: 5.2 µM

Compound: Cn1nc(-c2ccccc2)c2c1OC(N)=C(C#N)C2c1ccc(F)cc1 (centres undefined)
- IC50 [1]: > 10 µM

Compound: Cc1nn(C)c2c1C(c1cccnc1)C(C#N)=C(N)O2 (centres undefined)
- IC50 [1]: 8.8 µM

Compound: COc1ccc(-c2nn(C)c3c2C(c2ccc(F)cc2)C(C#N)=C(N)O3)cc1 (centres undefined)
- IC50 [1]: > 10 µM

Compound: Cn1nc(-c2ccccc2)c2c1OC(N)=C(C#N)C2c1ccc(OC(F)(F)F)cc1 (centres undefined)
- IC50 [1]: 5.5 µM

Compound: Cc1nn(C)c2c1C(c1ccc(C(F)(F)F)cc1)C(C#N)=C(N)O2 (centres undefined)
- IC50 [1]: 2.2 µM
- concentration at 3 h [2]: 4070 ng/g
- concentration at 3 h [3]: 1870 ng/g
- inhibition [4]: Dose-dependent effect
- concentration at 3 h [5]: 2080 ng/g
- concentration at 3 h [6]: 1220 ng/g
- concentration at 3 h [7]: 2400 ng/g
- concentration at 3 h [8]: 1390 ng/g
- concentration at 3 h [9]: 5640 ng/mL
- inhibition [10]: Dose-dependent effect
- half-life [11]: < 1.5 h

Compound: Cc1nn(-c2ccccc2)c2c1C(c1ccccc1)C(C#N)=C(N)O2 (centres undefined)
- IC50 [1]: 2.7 µM

Compound: COc1ccc(C2C(C#N)=C(N)Oc3c2c(-c2ccccc2)nn3C)cc1 (centres undefined)
- IC50 [1]: > 10 µM

Compound: Cc1nn(C)c2c1C(c1ccncc1)C(C#N)=C(N)O2 (centres undefined)
- IC50 [1]: 4.1 µM

Compound: Cn1nc(-c2ccccc2)c2c1OC(N)=C(C#N)C2c1cccc(Br)n1 (centres undefined)
- IC50 [1]: 1.7 µM

Compound: Cn1nc(-c2ccccc2)c2c1OC(N)=C(C#N)C2c1ccc(C(F)(F)F)cc1 (centres undefined)
- IC50 [1]: 4.1 µM

Compound: Cn1nc(-c2ccccc2)c2c1OC(N)=C(C#N)C2c1ccc(-n2ccnc2)cc1 (centres undefined)
- growth inhibition (GI) (NCI-H2122): Active
- concentration at 3 h [2]: 980 ng/g
- concentration at 3 h [3]: 1090 ng/g
- inhibition [4]: Dose-dependent effect
- concentration at 3 h [5]: 930 ng/g
- concentration at 3 h [6]: 380 ng/g
- concentration at 3 h [7]: 630 ng/g
- concentration at 3 h [8]: 170 ng/g
- concentration at 3 h [9]: 490 ng/mL
- inhibition [10]: Dose-dependent effect
- half-life [11]: < 1.5 h

Compound: COc1ccc(-c2nn(C)c3c2C(c2ccc(OC)cc2)C(C#N)=C(N)O3)cc1 (centres undefined)
- IC50 [1]: > 10 µM

Compound: Cn1nc(-c2ccccc2)c2c1OC(N)=C(C#N)C2c1ccncc1 (centres undefined)
- IC50 [1]: 5.2 µM

Compound: Cc1nn(C)c2c1C(c1cc(F)cc(F)c1)C(C#N)=C(N)O2 (centres undefined)
- IC50 [1]: 4.2 µM

Compound: CCCCC(=O)C1c2ccccc2NC2=C(C(=O)CCC2)C1c1ccccc1Cl (centres undefined)
- concentration at 3 h [2]: 11500 ng/g
- concentration at 3 h [3]: 3180 ng/g
- Drug metabolism [12]: 147.5 ng/mL
- Drug metabolism [13]: 52.8 ng/g
- Drug metabolism [14]: 2822.9 ng/g
- Drug metabolism [15]: 17 ng/g
- Drug metabolism [16]: 839.9 ng/g
- Drug metabolism [17]: 656.2 ng/mL
- Drug metabolism [18]: 2531.5 ng/g
- Drug metabolism [19]: 413 ng/g
- concentration at 3 h [5]: 3540 ng/g
- concentration at 3 h [6]: 4170 ng/g
- concentration at 3 h [7]: 5730 ng/g
- Drug metabolism [20]: 47.7 ng/g
- concentration at 3 h [8]: 210 ng/g
- Drug metabolism [21]: 350.6 ng/g
- Drug metabolism [22]: Metabolite_Detected
- Drug metabolism [23]: 487.4 ng/g
- Drug metabolism [24]: 472.6 ng/g
- Drug metabolism [25]: Metabolite_Detected
- Drug metabolism [26]: 145.5 ng/g
- concentration at 3 h [9]: 3950 ng/mL

Compound: Cn1nc(-c2ccccc2)c2c1OC(N)=C(C#N)C2c1cc(F)cc(F)c1 (centres undefined)
- IC50 [1]: 6.6 µM

Compound: Cc1nn(-c2ccccc2)c2c1C(c1ccc(F)cc1)C(C#N)=C(N)O2 (centres undefined)
- IC50 [1]: 6.6 µM
